Results published in patent US12239132B2, “Compounds and methods for increasing soil nutrient availability” (SOUND AGRICULTURE COMPANY, priority 2018, dated 2025).
Entries after “also recorded” stand apart in the source; their conditions may differ.

Columns and labels:
[1] = system: corn; assay: Corn field trials in Iowa, nitrogen deficiency; format: in vivo
Source text: In some instances, disclosed herein is a field trial of AB09 application to corn plants.
In some instances, disclosed herein is an aerial photograph description of a large scale strip field trial of corn plants applied with a compound, formulation, method, container, or kit disclosed herein, for example AB09. […] Greener (less yellow) coloring is indicative of healthier plants.
AB09 was applied to Buckingham, Iowa corn plots at the start of the season. In some instances, disclosed herein is a photo of corn at stage R3, with a treated plot on the right, and an untreated plot […]. Leaf firing (yellowing on the lower leaves) is apparent on the untreated plot, where AB09 plants are greener. In some instances, disclosed herein is an aerial image of treated and untreated plots at tasseling. […] Nitrogen content was quantified using a standard tissue sampling test to measure percent nitrogen content in leaf tissue samples.

[2] = system: Bacillus megaterium; assay: Phosphate solubilization assay with Bacillus megaterium (liquid NBRIP, malachite green); format: cell-based; settings: 100 ug/mL; for clearing (consumption) of insoluble phosphate in culture tubes, qualitative: B. megaterium in NBRIP
Protocol: In some aspects, a compound disclosed herein, e.g., AB09, stimulates bacterial phosphate solubilization activity. […] Cultures of B. megaterium were grown in media containing only insoluble phosphorus with and without a compound such as AB09. At the start of the experiment, there was no detectable difference of orthophosphate levels in the growth media alone and media supplemented with B. megaterium and/or AB09. Orthophosphate was measured after 72 hours of bacterial growth. Specifically, A 5 mL culture of B. megaterium was seeded from a single colony into Nutrient Broth (NB) and grown overnight in a 30° C. shaker. The cell pellet was collected by centrifugation, washed twice and resuspended in water. The concentration of B. megaterium was measured using a Nanodrop OD600 reading. B. megaterium was inoculated into liquid NBRIP media, which contains insoluble tricalcium phosphate as its sole phosphorus source. The final concentration of B. megaterium in the NBRIP media was OD600=0.02 ([…]). NBRIP media was supplemented with ML in a 1% DMSO solution to a final concentration of 100 ug/ML or 1% DMSO (both were filter sterilized through a 0.2 uM filter). Cell counts at the start of the experiment (0 hours) and at 72 hours post inoculation were measured using dilution plating. At the experiment start and after 72 hours of growth, 1 mL of culture was collected from the culture tubes. The supernatant was collected by centrifugation (5 min at 13,000 rpm). The cleared supernatant was diluted […] in molecular grade water and used for orthophosphate analysis. The remaining 4 mL of supernatant were collected by centrifugation for pH readings. Orthophosphate was measured using the malachite-green phosphate method (BioAssay Systems Malachite Green Phosphate Assay Kit Catalog No: POMG-25H). Briefly, the sample is mixed with a solution of Malachite Green and molybdate, which forms a green complex with free orthophosphate from the sample. Data are quantified on a plate reader at 620 nm. Unknown samples were run with a standard curve of known concentrations of orthophosphate. […] Phosphate solubilization in NBRIP culture media is shown at experiment start (0 h) and after 72 hours of shaking at 30° C. The left axis corresponds to box plots and whisker plots of the concentration of solubilized phosphate in the bacterial supernatant. The right axis corresponds to the pH of the supernatant. n=7 culture tubes for each B. megaterium with and without ML, and n=3 culture tubes for no bacteria with and without AB09. The malachite green phosphate assay was performed in triplicate. […] In some instances, disclosed herein are experimental culture tubes of B. megaterium growing in NBRIP without ML (AB09; leftmost two tubes) and with 100 ug/mL ML (right three tubes).
A strain of Bacillus megaterium (B. megaterium) was isolated from Iowa field soil and confirmed its ability to solubilize phosphorus by observing a cleared zone (or halo) around B. megaterium colonies when grown on solid media (NBRIP+Agar) containing only in insoluble form of phosphorus, Ca3(PO4)2. Cultures of B. megaterium were then grown in liquid NBRIP (containing only insoluble Ca3(PO4)2) with and without AB09. The growth media supernatant was analyzed for orthophosphate at the start of the experiment (0 h) and after 72 hours of growth by the malachite green quantification method.
FIG. 1A illustrates phosphate solubilization in NBRIP culture media at experiment start (0 h) and after 72 hours of shaking at 30° C. The left axis corresponds to box plots and whisker plots of the concentration of available phosphate (orthophosphate) in the bacterial supernatant. […] The malachite green phosphate assay was performed in triplicate. FIG. 1B illustrates an example of experimental culture tubes of B. megaterium growing in NBRIP without AB09 (leftmost two tubes) and with 100 ug/mL AB09 (right three tubes). […]

[3] = system: lettuce; assay: Field trials in lettuce; format: in vivo; settings: field trial

SMILES: CC1=CC(Oc2c(C)occc2=O)OC1=O (centres unmarked) [AB09, maltol lactone]
- leaf firing (yellowing of the lower leaves) of corn ([1]; Buckingham, Iowa corn plots, stage R3, vs untreated plot): greener; also recorded: reduced leaf firing
- nitrogen content in corn leaf tissue samples ([1]; compared to a control sample): higher leaf nitrogen content
- yellowing of corn plants at de-tassling ([1]; large scale strip field trial, aerial photograph, vs control plants): reduced yellowing
- NDVI of plots at tasseling (aerial image) ([1]; treated strip vs untreated plot): higher NDVI values
- pH of the growth media (supernatant) ([2]; 72 hours, concurrent with phosphate solubilization increase): decrease
- clearing (consumption) of insoluble phosphate in culture tubes, qualitative [2]: increased clearing
- clearing (consumption) of insoluble phosphate in culture tubes, qualitative ([2]; listed as ML): Increased consumption
- average concentration of orthophosphate in B. megaterium cultures compared to control cultures ([2]; NBRIP media with insoluble Ca3(PO4)2, 72 hours): significantly increased
- phosphate solubilization increase ([2]; NBRIP media, 72 hours, vs control B. megaterium cultures): two-fold
- average size of lettuce heads [3]: increased the average size
- increase in lettuce harvest weight [3]: 25%
